Laboratory results published in US20050203151A1, “Novel compounds, compositions and uses thereof for treatment of metabolic disorders and related conditions” (Kalypsys, Inc., priority 2003, published 2005).
Where two headings read alike, the source gives them in different places.

Assays:
Assay type in all cases: cell-based
PPAR-delta = target: T1, PPAR-delta (Homo sapiens, UniProt Q03181); experiment: human PPAR-GAL4 chimera luciferase reporter assay in CV-1 cells, PPAR-delta
T1 construct: expressed in transfected cells; host or cells: CV-1 cells
T1 sequence (Q03181 211-439 limits assumed): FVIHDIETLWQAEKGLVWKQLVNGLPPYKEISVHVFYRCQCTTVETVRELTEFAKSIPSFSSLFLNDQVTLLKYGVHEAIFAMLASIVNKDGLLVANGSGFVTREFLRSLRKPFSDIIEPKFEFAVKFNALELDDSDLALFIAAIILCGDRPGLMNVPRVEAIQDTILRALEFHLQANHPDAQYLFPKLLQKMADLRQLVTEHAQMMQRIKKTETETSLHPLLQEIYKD
Method: (§1) The compounds were evaluated in a cell-based assay to determine their human PPAR activity. The plasmids for human PPAR-GAL4 chimeras were prepared by fusing amplified cDNAs encoding the LBDs of PPARs to the C-terminal end of the yeast GAL4 DNA binding domain. CV-1 cells were grown and transiently transected with PerFectin (GTS, San Diego, Calif.) according to the manufacturer's protocol along with a luciferase reporter. Eight hours after transfection, 50 μl of cells were replated into 384 well plates ([…]). Sixteen hours after replating, cells were treated with either compounds or 1% DMSO for 24 hours. Luciferase activity was then assayed with Britelite (Perkin Elmer) following the manufacturer's protocol and measured with either the Perkin Elmer Viewlux or Molecular Devices Acquest.
(§2) Compounds may be screened for functional potency in transient transfection assays in CV-1 cells for their ability to activate the PPAR subtypes (transactivation assay). A previously established chimeric receptor system was utilized to allow comparison of the relative transcriptional activity of the receptor subtypes on the same synthetic response element and to prevent endogenous receptor activation from complicating the interpretation of results. See, for example, Lehmann, J. M.; Moore, L. B.; Smith-Oliver, T. A; Wilkinson, W. O.; Willson, T. M.; Kliewer, S. A., An antidiabetic thiazolidinedione is a high affinity ligand for peroxisome proliferator-activated receptory γ (PPARγ), J. Biol. Chem., 1995, 270, 12953-6. The ligand binding domains for murine and human PPAR-alpha, PPAR-gamma, and PPAR-delta are each fused to the yeast transcription factor GAL4 DNA binding domain. CV-1 cells were transiently transfected with expression vectors for the respective PPAR chimera along with a reporter construct containing four or five copies of the GAL4 DNA binding site driving expression of luciferase. After 8-16 h, the cells are replated into multi-well assay plates and the media is exchanged to phenol-red free DME medium supplemented with 5% delipidated calf serum. 4 hours after replating, cells were treated with either compounds or 1% DMSO for 20-24 hours. Luciferase activity was then assayed with Britelite (Perkin Elmer) following the manufacturer's protocol and measured with either the Perkin Elmer Viewlux or Molecular Devices Acquest (see, for example, Kliewer, S. A., et. al. Cell 1995, 83, 813-819). Rosiglitazone is used as a positive control in the hPPAR-γ assay. Wy-14643 and GW7647 is used as a positive control in the hPPAR-α assay. GW501516 is used as the positive control in the hPPAR-δ assay.

PPAR-gamma = target: T2, PPAR-gamma (Homo sapiens, UniProt P37231); experiment: human PPAR-GAL4 chimera luciferase reporter assay in CV-1 cells, PPAR-gamma
T2 construct: expressed in transfected cells; host or cells: CV-1 cells
T2 sequence (P37231 238-503 limits assumed): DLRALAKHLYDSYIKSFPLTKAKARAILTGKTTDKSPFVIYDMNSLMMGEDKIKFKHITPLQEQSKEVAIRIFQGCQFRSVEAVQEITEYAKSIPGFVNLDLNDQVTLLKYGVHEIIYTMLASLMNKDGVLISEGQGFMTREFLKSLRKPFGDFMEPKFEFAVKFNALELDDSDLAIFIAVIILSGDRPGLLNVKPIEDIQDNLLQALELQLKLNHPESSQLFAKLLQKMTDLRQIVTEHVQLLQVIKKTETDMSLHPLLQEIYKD
Method: as §1, §2

PPAR-alpha = target: T3, PPAR-alpha (Homo sapiens, UniProt Q07869); experiment: human PPAR-GAL4 chimera luciferase reporter assay in CV-1 cells, PPAR-alpha
T3 construct: expressed in transfected cells; host or cells: CV-1 cells
T3 sequence (Q07869 239-466 limits assumed): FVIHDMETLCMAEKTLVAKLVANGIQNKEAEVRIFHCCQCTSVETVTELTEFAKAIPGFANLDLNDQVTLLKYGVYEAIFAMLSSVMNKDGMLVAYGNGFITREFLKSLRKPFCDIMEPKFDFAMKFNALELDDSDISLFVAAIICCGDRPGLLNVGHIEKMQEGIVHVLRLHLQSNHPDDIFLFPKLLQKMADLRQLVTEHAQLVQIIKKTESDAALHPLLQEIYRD
Method: as §1, §2

[1] = Table 2, Examples 1-10, read-out: PPAR δ EC50
[2] = Table 2, Examples 1-10, read-out: PPAR γ EC50
[3] = Table 2, Examples 1-10, read-out: PPAR α EC50

Row | EC50 (PPAR-delta; [1]) [µM] | EC50 (PPAR-gamma; [2]) [µM] | EC50 (PPAR-alpha; [3]) [µM] | EC50 (PPAR-delta; Table 3, Examples 11-25, read-out: PPAR delta (EC50)) [µM] | EC50 (PPAR-gamma; Table 3, Examples 11-25, read-out: PPAR gamma (EC50)) [µM] | EC50 (PPAR-alpha; Table 3, Examples 11-25, read-out: PPAR alpha (EC50)) [µM] | SMILES
1 | < 1 | 1 to 10 | > 10 | – | – | – | Cc1nc(-c2ccc(C(F)(F)F)cc2)sc1COc1cccc2c1ccn2CC(=O)O [Example 4, {4-[4-methyl-2-(4-trifluoromethyl-phenyl)-thiazol-5-ylmethoxy]-indol-1-yl}-acetic acid]
2 | – | – | – | 5 to 100 | 5 to 100 | > 100 | Cc1nc(-c2ccc(C(F)(F)F)cc2)sc1Cn1ccc2cccc(OCC(=O)O)c21 [Example 14, {1-[4-Methyl-2-(4-trifluoromethyl-phenyl)-thiazol-5-ylmethyl]-1H-indol-7-yloxy}-acetic acid]
3 | > 10 | > 10 | > 10 | – | – | – | Cc1nc(-c2ccc(C(F)(F)F)cc2)sc1COc1cccc2ccn(CC(=O)O)c12 [Example 6, {7-[4-methyl-2-(4-trifluoromethyl-phenyl)-thiazol-5-ylmethoxy]-indol-1-yl}-acetic acid]
